Experimental data taken from patent publication US11191774B2, “Drug formulations for cancer treatment” (The Regents of the University of California, priority 2015, dated 2021).
“And” between values parts separate entries of the source, which are not always exact repeats. Identical values can stand only once. One block for each compound: values may come before it.

Key:
[1] = Drug encapsulation in liposomes (absorbance after dissolution); assay type: physicochemical; conditions: for enhancement of liposomal drug encapsulation relative to 5FU: cationic liposomes; for Drug Incorporation: liposomes 80:10:10 DSPC:DOTAP:Chol containing the 5FU analogue
Experimental: The dissolved liposomes were centrifuged at 12000 g for 20 minutes to allow the lipids to pellet. […] Drug encapsulation is reported as the mol % of drug with respect to lipids±SD. Liposome sizes and ζ potentials were determined utilizing dynamic light scattering and electrophoretic light scattering, respectively, on a Malvern ZSizer Nano ZS. Samples were diluted 100× in distilled de-ionized water immediately prior analysis, and each measurement is reported as an average of 3 independent sets of at least 13 runs each ±SD. Drug encapsulation was evaluated for each drug, and the encapsulation methods reported here provided the highest yield for each respective drug. […] To remove free drug, liposomes were finally passed through a Sephadex G-25 PD-10 column.

[2] = Liposome size and zeta potential (dynamic/electrophoretic light scattering); assay type: physicochemical; conditions: liposomes 80:10:10 DSPC:DOTAP:Chol containing the 5FU analogue
Experimental: To measure drug encapsulation, 50 μL of drug-loaded liposomes were dissolved in 950 μL methanol through vortexing and sonication. The dissolved liposomes were centrifuged at 12000 g for 20 minutes to allow the lipids to pellet. The supernatant was collected, diluted serially, and their absorbances were measured at 480 nm, 266 nm, 264 nm, 268 nm, 268 nm, and 394 nm to quantify DOX, 5FU, 5FUG, 5FUW, 5FUR, and 5FURW concentrations, respectively. Drug encapsulation is reported as the mol % of drug with respect to lipids±SD. Liposome sizes and ζ potentials were determined utilizing dynamic light scattering and electrophoretic light scattering, respectively, on a Malvern ZSizer Nano ZS. Samples were diluted 100× in distilled de-ionized water immediately prior analysis, and each measurement is reported as an average of 3 independent sets of at least 13 runs each ±SD.

[3] = test system: MCF 10A human breast epithelial cells; assay: MTT toxicity against healthy epithelial cells; assay type: cell-based; conditions: synergistic ratio R=819 vs single drug
Experimental: (§1) For cell viability studies, BT-474 cells were seeded at a density of 10,000 cells per well in 100 μL cell culture medium, grown overnight and incubated with drug solutions for 72 hours. Cell viability was assessed post drug-incubation via 3-(4,5-Dimethylthiazol-2-yl)-2,5-diphenyltetrazolium bromide (MTT; Invitrogen Life Technologies) assays. Individual drug concentrations which inhibit 50% cell growth (D50) were first determined by fitting dose-effect data to the median-effect model (Chou and Talalay, Advances in Enzyme Regulation 1984, 22, 27-55). For combinatorial studies, 5FU and DOX were simultaneously incubated with BT-474 cells at ratios of differing multiples of their D50 concentrations, and cell viability was subsequently assessed. CI values were further calculated, as previously described (Chou, Pharmacological Reviews 2006, 58(3): p. 621-621), with the designations of CI<1, CI=1, and C>1 respectively representing synergy, additivity, and antagonism. The same methodology was applied to assess interactions between all other chemotherapy combinations presented.
These cell types were chosen because any systemically-administered drug is susceptible to interactions and uptake by endothelial cells, as well as epithelial cells in surrounding healthy tissue.

BT-474 cells = assay: Liposomal cancer cell growth inhibition, calcein-AM viability assay; assay type: cell-based, human
Experimental: (§2) In vitro anticancer efficacy of drug-loaded liposomes was determined via calcein-AM cell viability assay. BT-474 cells or 4T1 cells were seeded in a 96-well cell culture plate at a density of 11,000 cells per well or 1,000 cells per well in a total volume of 100 μL media and allowed to adhere overnight. Media was then replaced with fresh media containing liposomes and incubated for 72 hours or 48 hours for BT-474 or 4T1 cells, respectively. The discrepancies of cell seeding densities and drug incubation times between BT-474 cells and 4T1 cells is due to the much lower doubling time of 4T1 cells compared to BT-474. Parameters were modified such that untreated cells reached 70% confluency after treatment. After incubation with liposomes, media was aspirated and replaced with 1 μM calcein-AM in PBS for 30 minutes at room temperature. Fluorescence intensity of intracellularly hydrolyzed calcein-AM was measured using excitation and emission wavelengths of 490 nm and 520 nm. Fractional cell inhibition was calculated by subtracting fluorescence of live cells in experimental wells from those of untreated cells and normalizing against untreated cells. D50 concentrations were determined by fitting experimental data to the median-effect model (Chou and Talalay, Advances in Enzyme Regulation 1984, 22, 27-55), and their error is reported as the standard error of the model fit.

[4] = literature (Haran et al.); cited from earlier work
[5] = test system: ROS generation in BT-474 cells; assay: Reactive oxygen species generation, carboxy-H2DCFDA confocal microscopy; assay type: cell-based, human; conditions: 72 hours incubation
Experimental: To visualize and assess the production of reactive oxygen species (ROS), cells were seeded in an 8-well chambered borosilicate coverglass (Nunc Lab-Tek) at a density of 85,000 cells per well in 300 μL medium and grown overnight prior to incubation with drug solutions in fresh medium. After incubation of BT-474 cells with either 5FU and DOX at a molar ratio of 819:1, 5FU alone, or DOX alone for 72 hours, cells were washed three times in PBS and exposed to 10 μM carboxy-H2DCFDA (Invitrogen Life Technologies) in phosphate buffered saline (PBS; Theimo Scientific) for 30 minutes at 37° C. and 5% CO2. Upon acetate cleavage and oxidation, carboxy-H2DCFDA formed carboxydichlorofluorescein and acted as an ROS indicator. Cells were washed thrice more in PBS, finally suspended in cell culture medium, and immediately imaged live using an Olympus Fluoview 1000 spectral confocal microscope. Carboxydichlorofluorescein and DOX were both excited utilizing a 488 nm 10 mW Argon gas laser and visualized with 492-560 nm and 574-674 nm optical filters, respectively. Images were captured as 10 μm z-stacks, and each z-stack was averaged into a single image using ImageJ 1.47 h software (NIH). Fluorescence intensity is reported as the raw integrated density divided by number of cells, determined by DOX fluorescence which coincided with cell nuclei.

[6] = test system: MDA-MB-231 breast cancer cell line; assay: 5FURW cell viability studies (Example 4); assay type: cell-based, human; conditions: for IC50: Homo sapiens
Experimental: (§3) Two breast cancer cell lines (of mouse and human, 4T1 and MDA-MB-231) were tested with the synthesized 5FURW, compared with 5FU and also with encapsulated drug in liposomes functionalized with amino and carboxyl groups (Table 4, FIG. 13).

[7] = test system: BT-474 human breast cancer cells; assay: Combination Index (CI) study of free drugs, MTT cell viability; assay type: cell-based
Experimental: as §1

[8] = test system: 4T1 breast cancer cell line; assay: 5FURW cell viability studies (Example 4); assay type: cell-based, mouse; conditions: for IC50: Mus musculus
Experimental: as §3

[9] = test system: 4T1 murine breast cancer cells; assay: Liposomal cancer cell growth inhibition, calcein-AM viability assay; assay type: cell-based, mouse; conditions: 4T1, W concentrations expected during 5FURW cytotoxicity assays, free or liposome-encapsulated
Experimental: as §2

[10] = Encapsulation efficiency and loading capacity of drug-loaded liposomes (Example 4); assay type: physicochemical; conditions: 5FURW in PEGylated liposomes, 2 h encapsulation
Experimental: Liposomes were prepared with a mixture of DSPC:DSPE-PEG(2000)Amine or DSPE-PEG(2000)Carboxyl:Cholesterol:DOTAP with the ratio 75:5:10:10 via the thin lipid film formation. After the formation of the lipids and passing them through an extruder to obtain monodisperse 100 nm liposomes, the external solvent was changed using a size exclusion column and the drug encapsulated during two hours. Briefly, the thin lipid films were hydrated with 250 mM (NH4)SO4 to form liposomes containing either amine-terminated PEG or carboxy-terminated PEG. 1 mL of liposomes and 200 μL of 73 mM 5FURW were used for the encapsulation of 5FURW into the liposomes. […]
The encapsulation efficiency and loading capacity were calculated as follows: […]
The liposomes were characterized using (i) the Steward assay to determine lipid concentration, (ii) absorbance at 270 nm to evaluate 5FURW concentration, and (iii) dynamic light scattering measurements to evaluate size and surface potential. […]
The DAFODIL fabrication procedure was performed as follows. […] Characterization consisted of absorbance measurements at 270 nm and 480 nm to determine the concentration of 5FURW and DOX, respectively, dynamic light scattering measurements to measure liposome size and surface potential, and Stewart assay to quantify the concentration of lipids in the sample.

Compound: COc1cccc2c1C(=O)c1c(O)c3c(c(O)c1C2=O)C[C@@](O)(C(=O)CO)C[C@@H]3O[C@H]1C[C@H](N)[C@H](O)[C@H](C)O1 [DOX, doxorubicin]
reduction of D50 ratio (BT-474 relative to MCF 10A) by combining at R=819, relative to individual drug [3]: 5 fold
IC50 (BT-474 cells; BT-474, 72 hrs, fit to ME model, read-out: D50 (DOX-equivalent concentration inhibiting 50% cell growth)): 300 nM
liposomal encapsulation of DOX [4]: 14-24 mol %
ROS generation [5]: Little ROS generation

Compound: N[C@@H](Cc1c[nH]c2ccccc12)C(=O)O [tryptophan]
toxicity (BT-474 cells; BT-474, W concentrations expected during 5FURW cytotoxicity assays, free or liposome-encapsulated): non-toxic
toxicity [9]: non-toxic

Compound: NC(Cc1c[nH]c2ccccc12)C(=O)OC[C@H]1O[C@@H](n2cc(F)c(=O)[nH]c2=O)C(OC(=O)C(N)Cc2c[nH]c3ccccc23)C1OC(=O)C(N)Cc1c[nH]c2ccccc12 (some centres unmarked) [5FURW, 5-fluorouridine-2′, 3′, 5′-tritryptophanate]
encapsulation efficiency [10]: 20%
loading capacity [10]: 20%
activity relative to 5FU [6]: 127 fold
IC50 [6]: 0.396 µM
enhancement of liposomal drug encapsulation relative to 5FU [1]: 38 fold
Drug Incorporation [1]: 26.6 ± 2.4 mol %
anticancer activity compared with 5FUR ([7]; free solution and liposomes, FIGS. 5A and 5B): same anticancer activity as unmodified 5FUR
activity relative to 5FU [8]: 2.5 fold
IC50 [8]: 41.2 µM
Size [2]: 163.8 ± 17.2 nm
Zeta Potential [2]: 32.2 ± 6.5 mV

Second part, led by results:

enhancement of liposomal drug encapsulation relative to 5FU [1]: ~5 fold
Drug Incorporation [1]: 3.7 mol % and 3.7 ± 0.2 mol %
Size [2]: 177.4 ± 2.8 nm
Zeta Potential [2]: 37.9 ± 1.0 mV
Compound: O=c1[nH]c(=O)n([C@@H]2O[C@H](CO)[C@@H](O)[C@H]2O)cc1F [5FUR, 5-fluorouridine, reference compound]

IC50 [6]: 50.4 µM
Drug Incorporation [1]: 0.7 mol % and 0.7 ± 0.2 mol %
IC50 [8]: 104 µM
Size [2]: 173.5 ± 43 nm
Zeta Potential [2]: 41.7 ± 9.8 mV
Compound: O=c1[nH]cc(F)c(=O)[nH]1 [5FU, 5-fluorouracil, reference compound]
reduction of D50 ratio (BT-474 relative to MCF 10A) by combining at R=819, relative to individual drug [3]: 36 fold
ROS generation [5]: negligible ROS generation
BT-474 cancer cell growth inhibited ([7]; same 5FU concentrations, combination at R=819, FIG. 3B): 40%

Drug Incorporation [1]: 3.2 mol % and 3.2 ± 0.4 mol %
Size [2]: 167.4 ± 1.8 nm
Zeta Potential [2]: 19.6 ± 0.6 mV
Compound: N[C@@H](Cc1c[nH]c2ccccc12)C(=O)OCn1cc(F)c(=O)[nH]c1=O [5FUW, (5-fluoro-2,4-dioxo-3,4-dihydropyrimidin-1(2H)-yl)methyl tryptophanate]

Drug Incorporation [1]: 1.4 mol % and 1.4 ± 0.5 mol %
Size [2]: 161.8 ± 10.8 nm
Zeta Potential [2]: 41.2 ± 1.8 mV
Compound: NCC(=O)OCn1cc(F)c(=O)[nH]c1=O [5FUG, 1-[(aminomethyl)-ester]methylene-5-fluorouracil]
